Among the data in patent publication US8629102B2, “3-hydroxyisothiazole 1-oxide derivatives” (Mochida Pharmaceutical Co., Ltd., priority 2011, dated 2014) are EC50 values, retold here.

A value given as a limit tells only on which side of the number the result lay.

T1 sequence (O14842 whole entry): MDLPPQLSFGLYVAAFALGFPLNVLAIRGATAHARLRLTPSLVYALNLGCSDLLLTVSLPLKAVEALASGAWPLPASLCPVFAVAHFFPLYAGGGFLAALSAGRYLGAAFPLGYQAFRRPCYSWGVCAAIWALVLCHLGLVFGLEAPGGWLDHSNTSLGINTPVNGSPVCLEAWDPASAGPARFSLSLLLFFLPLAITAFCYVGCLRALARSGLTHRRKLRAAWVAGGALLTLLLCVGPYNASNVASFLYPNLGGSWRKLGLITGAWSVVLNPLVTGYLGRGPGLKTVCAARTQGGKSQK

This test addresses T1, GPR40 of human origin (Homo sapiens, UniProt O14842).
T1 construct: expressed in transfected cells
Put plainly: Agonist action on GPR40 of human origin (intracellular Ca2+ change). It is filed as cell-based. The note with it: CHO cell strain stably expressing GPR40 of human origin; change in Ca2+ concentration, fluorescent calcium indicator. The procedure: Pharmacological Test Example 1: Agonist Action on GPR40 of Human Origin
A CHO cell strain stably expressing GPR40 of human origin was used to determine the agonist action of a subject compound. This cell strain was seeded in a clear bottom 96 well plate at 4×10^4 cells/100 pt/well. The cell strain iswas cultured in a CO2 incubator overnight using a Ham's F-12 medium containing a 10% fetal bovine serum, 100 U/mL penicillin, 0.1 mg/mL streptomycin, and 400 μg/mL Geneticin. Calcium 4 Assay Kit (Molecular Devices) was used as a fluorescent calcium indicator. One mL of 77 mg/mL probenecid (Invitrogen) was added to 100 mL of a calcium indicator solution to prepare a solution (loading solution) mixed with a 20 mM HEPES-containing Hanks' balanced salt solution (HBSS) in equal proportions. To the cells from which the culture solution is removed, 200 μl of the loading solution was added, and the cells were cultured in a CO2 incubator for 1 hour. The subject compound was diluted with a 20 mM HEPES-containing HBSS and was added to the cells by 50 μL, and the change in the Ca^2+ concentration was measured with an intracellular ion analyzer. The EC50 value of the subject compound was calculated using the dose-response curve of fluorescence intensity variation.
Take `[O-][s+]1nc(O)cc1-c1ccc(O[C@@H]2CCc3c(-c4ccc(Cl)cc4C(F)(F)F)cccc32)cc1` (stereo partly drawn) [Example 69, 5-(4-(((R)-4-(4-chloro-2-trifluoromethylphenyl)-2,3-dihydro-1H-inden-1-yl)oxy)phenyl)-3-hydroxyisothiazole 1-oxide]: the EC50 lay within 300 to 3000 nM.
Turning to `COc1ccc(F)cc1-c1cccc2c1CC[C@H]2Oc1ccc(-c2cc(O)n[s+]2[O-])cc1` (stereo partly drawn) [Example 56, 5-(4-(((R)-4-(5-fluoro-2-methoxyphenyl)-2,3-dihydro-1H-inden-1-yl)oxy)phenyl)-3-hydroxyisothiazole 1-oxide], the EC50 was less than 300 nM.
The same measure for `COc1cc(Cl)cc(-c2cccc3c2CC[C@H]3Oc2ccc(-c3cc(O)n[s+]3[O-])cc2)c1` (stereo partly drawn) [Example 14, 5-(4-(((R)-4-(3-chloro-5-methoxyphenyl)-2,3-dihydro-1H-inden-1-yl)oxy)phenyl)-3-hydroxyisothiazole 1-oxide]: less than 300 nM.
The same measure for `Cc1ccccc1Oc1cccc2c1CC[C@H]2Oc1ccc(-c2cc(O)n[s+]2[O-])cc1` (stereo partly drawn) [Example 95, 3-hydroxy-5-(4-(((R)-4-(o-tolyloxy)-2,3-dihydro-1H-inden-1-yl)oxy)phenyl)isothiazole 1-oxide]: less than 300 nM.
For the molecule `CCOc1cccc(-c2cccc3c2CC[C@H]3Oc2ccc(-c3cc(O)n[s+]3[O-])cc2)c1` (stereo partly drawn) [Example 32, 5-(4-(((R)-4-(3-ethoxyphenyl)-2,3-dihydro-1H-inden-1-yl)oxy)phenyl)-3-hydroxyisothiazole 1-oxide], the EC50 is 300 to 3000 nM.
Take `N#Cc1ccc(-c2cccc3c2CC[C@H]3Oc2ccc(-c3cc(O)n[s+]3[O-])cc2)cc1` (stereo partly drawn) [Example 156, 4-((1R)-1-(4-(3-hydroxy-1-oxidoisothiazol-5-yl)phenoxy)-2,3-dihydro-1H-inden-4-yl)benzonitrile]: the EC50 is less than 300 nM.
The same measure for `[O-][s+]1nc(O)cc1-c1ccc(OC2COc3c(Oc4ccccc4)cccc32)cc1` (single isomer, unassigned) [Example 145-b, 3-hydroxy-5-(4-((7-phenoxy-2,3-dihydrobenzofuran-3-yl)oxy)phenyl)isothiazole 1-oxide]: 300 to 3000 nM; for `CS(=O)(=O)CCCOc1ccc(Oc2cccc3c2CC[C@H]3Oc2ccc(-c3cc(O)n[s+]3[O-])cc2)cc1` (stereo partly drawn) [Example 115, 3-hydroxy-5-(4-(((R)-4-(4-(3-(methylsulfonyl)propoxy)phenoxy)-2,3-dihydro-1H-inden-1-yl)oxy)phenyl)isothiazole 1-oxide]: less than 300 nM.
The same measure for `COc1ccc(-c2cccc3c2CC[C@H]3Oc2ccc(-c3cc(O)n[s+]3[O-])cc2)cc1` (stereo partly drawn) [Example 23, 5-(4-(((R)-4-(4-methoxyphenyl)-2,3-dihydro-1H-inden-1-yl)oxy)phenyl)-3-hydroxyisothiazole 1-oxide]: less than 300 nM.
`[O-][s+]1nc(O)cc1-c1ccc(O[C@@H]2CCc3c2cccc3N2CCCc3ccccc32)cc1` (stereo partly drawn) [Example 158, 5-(4-(((R)-4-(3,4-dihydroquinoline-1(2H)-yl)-2,3-dihydro-1H-inden-1-yl)oxy)phenyl)-3-hydroxyisothiazole 1-oxide]: the half-maximal effective concentration (EC50) is less than 300 nM.
The same measure for `CC(=O)c1ccc(-c2cccc3c2CC[C@H]3Oc2ccc(-c3cc(O)n[s+]3[O-])cc2)s1` (stereo partly drawn) [Example 79, 1-(5-((1R)-1-(4-(3-hydroxy-1-oxidoisothiazol-5-yl)phenoxy)-2,3-dihydro-1H-inden-4-yl)thiophen-2-yl)ethanone]: less than 300 nM; for `COc1ccc(-c2cccc3c2CC[C@H]3Oc2ccc(-c3cc(O)n[s+]3[O-])cc2)c(C)c1` (stereo partly drawn) [Example 40, 5-(4-(((R)-4-(4-methoxy-2-methylphenyl)-2,3-dihydro-1H-inden-1-yl)oxy)phenyl)-3-hydroxyisothiazole 1-oxide]: less than 300 nM; for `CCCc1ccc(-c2cccc3c2CC[C@H]3Oc2ccc(-c3cc(O)n[s+]3[O-])cc2)cc1` (stereo partly drawn) [Example 22, 5-(4-(((R)-4-(4-n-propylphenyl)-2,3-dihydro-1H-inden-1-yl)oxy)phenyl)-3-hydroxyisothiazole 1-oxide]: less than 300 nM.
In the case of `Cc1cc(OCCC(C)(C)O)cc(C)c1-c1cccc2c1OCC2Oc1ccc(-c2cc(O)n[s+]2[O-])cc1` (single isomer, unassigned) [Example 148-b, 3-hydroxy-5-(4-((7-(4-(3-hydroxy-3-methylbutoxy)-2,6-dimethylphenyl)-2,3-dihydrobenzofuran-3-yl)oxy)phenyl)isothiazole 1-oxide], the EC50 was in the range of 300 to 3000 nM.
The same measure for `N#Cc1ccc(Oc2cccc3c2CC[C@H]3Oc2ccc(-c3cc(O)n[s+]3[O-])cc2)cn1` (stereo partly drawn) [Example 119, 5-(((1R)-1-(4-(3-hydroxy-1-oxidoisothiazol-5-yl)phenoxy)-2,3-dihydro-1H-inden-4-yl)oxy)picolinonitrile]: less than 300 nM.
The same measure for `COc1cccc(-c2cccc3c2CC[C@H]3Oc2ccc(-c3cc(O)n[s+]3[O-])cc2)c1F` (stereo partly drawn) [Example 59, 5-(4-(((R)-4-(2-fluoro-3-methoxyphenyl)-2,3-dihydro-1H-inden-1-yl)oxy)phenyl)-3-hydroxyisothiazole 1-oxide]: less than 300 nM; for `N#Cc1ccc(Oc2cccc3c2OCC3Oc2ccc(-c3cc(O)n[s+]3[O-])cc2)cc1` (centres unmarked) [Example 138, 4-((3-(4-(3-hydroxy-1-oxidoisothiazol-5-yl)phenoxy)-2,3-dihydrobenzofuran-7-yl)oxy)benzonitrile]: less than 300 nM.
The same measure for `[O-][s+]1nc(O)cc1-c1ccc(O[C@@H]2CCc3c(-c4cccc(F)c4F)cccc32)cc1` (stereo partly drawn) [Example 17, 5-(4-(((R)-4-(2,3-difluorophenyl)-2,3-dihydro-1H-inden-1-yl)oxy)phenyl)-3-hydroxyisothiazole 1-oxide]: less than 300 nM; for `COc1ccc(-c2cccc3c2CC[C@H]3Oc2ccc(-c3cc(O)n[s+]3[O-])cc2)c(OC)c1` (stereo partly drawn) [Example 49, 5-(4-(((R)-4-(2,4-dimethoxyphenyl)-2,3-dihydro-1H-inden-1-yl)oxy)phenyl)-3-hydroxyisothiazole 1-oxide]: less than 300 nM; for `Cc1ccc(F)cc1-c1cccc2c1CC[C@H]2Oc1ccc(-c2cc(O)n[s+]2[O-])cc1` (stereo partly drawn) [Example 41, 5-(4-(((R)-4-(5-fluoro-2-methylphenyl)-2,3-dihydro-1H-inden-1-yl)oxy)phenyl)-3-hydroxyisothiazole 1-oxide]: less than 300 nM.
As for `[O-][s+]1nc(O)cc1-c1ccc(O[C@@H]2CCc3c(-c4cncc(Cl)c4)cccc32)cc1` (stereo partly drawn) [Example 73, 5-(4-(((R)-4-(5-chloropyridin-3-yl)-2,3-dihydro-1H-inden-1-yl)oxy)phenyl)-3-hydroxyisothiazole 1-oxide], the 50% effective concentration (EC50) is less than 300 nM.
The same measure for `CC(C)c1ccccc1-c1cccc2c1CC[C@H]2Oc1ccc(-c2cc(O)n[s+]2[O-])cc1` (stereo partly drawn) [Example 34, 5-(4-(((R)-4-(2-isopropylphenyl)-2,3-dihydro-1H-inden-1-yl)oxy)phenyl)-3-hydroxyisothiazole 1-oxide]: 300 to 3000 nM.
Turning to `[O-][s+]1nc(O)cc1-c1ccc(O[C@@H]2CCc3c(-c4cc(F)ccc4OCc4ccccc4)cccc32)cc1` (stereo partly drawn) [Example 62, 5-(4-(((R)-4-(2-benzyloxy-5-fluorophenyl)-2,3-dihydro-1H-inden-1-yl)oxy)phenyl)-3-hydroxyisothiazole 1-oxide], the concentration for a half-maximal effect (EC50) fell in the range of 300 to 3000 nM.

A word on the EC50: it is the concentration that produces a half-maximal response.
